Source: publication PMC7235764, “Novel Azoles as Antiparasitic Remedies against Brain-Eating Amoebae” (Antibiotics, 2020)

How the values were obtained:
N. fowleri [1] = test: Amoebicidal assay (trypan blue exclusion) against N. fowleri; format: cell-based, Naegleria fowleri; settings: 50 μM, 24 h; for amoebicidal activity, mean (M): M with SD, azole alone (before conjugation); for percentage cell death (amoebicidal activity): negative control considered as 0%
Procedure: (§1) N. fowleri cells (ATCC 30174) and B. mandrillaris cells (ATCC 50209) were acquired from American Type Culture Collection and cultivated in RPMI-1640 media supplemented with 1% antibiotics with HeLa cell monolayers used as a feeder layer at 37 °C and 5% CO2 as previously cultured.
(§2) Amoebicidal assays were accomplished as formerly explained. Briefly, 5 × 10^5 amoebae cells were kept for 24 h at 37 °C and 5% CO2 with 50 μM azole compounds. While positive controls used were amphotericin B and ketoconazole, RPMI-1640 alone was used as negative control and respective solvents were used as solvent control. Trypan blue exclusion assay, which consists of using 0.1% trypan blue to differentiate between live (unstained) and dead (stained) cells and count the cells using a haemocytometer.

B. mandrillaris [2] = test: Amoebicidal assay (trypan blue exclusion) against B. mandrillaris; format: cell-based, Balamuthia mandrillaris; settings: 50 μM, 24 h; for amoebicidal activity, mean (M): M with SD, azole alone (before conjugation); for percentage cell death (amoebicidal activity): negative control considered as 0%
Procedure: as §1, §2

HaCaT cells = test: Cytotoxicity assay (LDH release) against human cells; format: cell-based; settings: 50 μM, 24 h, 37 °C
Procedure: Figure 3 Cytotoxic effects of azoles against host cells. Briefly, 50 μM azoles were incubated with HaCaT cells monolayers for 24 h at 37 °C in a 5% CO2 incubator as described in Materials and Methods. […] The data are presented as the mean ± standard error. Cytotoxic effects of the drugs were determined as previously described. 50 μM azole compounds was incubated on HeLa cells for 24 h at 37 °C and 5% CO2 in RPMI-1640 media. The level of lactate dehydrogenase (LDH) enzyme in the RPMI-media which indicates cytotoxic effects of drugs was determined by means of a cytotoxicity detection kit (Roche Applied Science). The percentage cytotoxicity was calculated: [(Absorbance of sample - Absorbance of untreated cells)/(Absorbance for total LDH release - Absorbance of untreated cells)] × 100 = percentage cytotoxicity.

B. mandrillaris [3] = test: Amoebistatic assay (growth inhibition on HeLa feeder monolayers) against B. mandrillaris; format: cell-based, Balamuthia mandrillaris; settings: 24 h; for amoebistatic activity, mean (M): 50 μM, M with SD; for inhibition at 50 µM: Balamuthia mandrillaris, HeLa, untreated amoebae considered as 0%
Procedure: (§3) N. fowleri cells (ATCC 30174) and B. mandrillaris cells (ATCC 50209) were acquired from American Type Culture Collection and cultivated in RPMI-1640 media supplemented with 1% antibiotics with HeLa cell monolayers used as a feeder layer at 37 °C and 5% CO2 as previously cultured. 5 × 10^5 amoebae cells were kept for 24 h at 37 °C and 5% CO2 with 50 μM azole compounds on HeLa monolayers as feeder cells. While positive controls used were amphotericin B and ketoconazole, RPMI-1640 alone was used as negative control and respective solvents were used as solvent control. Trypan blue exclusion assay which consists of using 0.1% trypan blue to distinguish between live (unstained) and dead (stained) cells and count the cells using a haemocytometer.

N. fowleri [4] = test: Amoebistatic assay (growth inhibition on HeLa feeder monolayers) against N. fowleri; format: cell-based, Naegleria fowleri; settings: 24 h; for inhibition at 50 µM: Naegleria fowleri, HeLa, compared to untreated cells; for amoebistatic activity, mean (M): 50 μM, M with SD
Procedure: as §3

COc1cc(-c2nc3ccccc3[nH]2)cc(Br)c1OC [A1, 2-[3-Bromo-4,5-bis(methoxy)phenyl]-1H-benzimidazole]
amoebicidal activity, mean (M) (N. fowleri [1]): 0%
percentage cell death (amoebicidal activity) (N. fowleri [1]): did not cause amoebicidal activity
amoebicidal activity, mean (M) (B. mandrillaris [2]): 35.62%
percentage cell death (amoebicidal activity) (B. mandrillaris [2]): 36%
cytotoxicity (HaCaT cells): 41%
amoebistatic activity, mean (M) (B. mandrillaris [3]): 52.63%
inhibition at 50 µM (B. mandrillaris [3]): 53%
inhibition at 50 µM (N. fowleri [4]): 20%

Cc1ccc(-c2nc3ccccc3[nH]2)o1 [A2]
percentage cell death (amoebicidal activity) (N. fowleri [1]): 31%
percentage cell death (amoebicidal activity) (B. mandrillaris [2]): limited amoebicidal activity
cytotoxicity (HaCaT cells): no cytotoxic activities
amoebistatic activity, mean (M) (B. mandrillaris [3]): 70.33%
inhibition at 50 µM (B. mandrillaris [3]): 70%
amoebistatic activity, mean (M) (N. fowleri [4]): 64.31%
inhibition at 50 µM (N. fowleri [4]): 64%

CC1(C)C/C(=N\NC(=S)Nc2ccccc2Cl)c2cnn(-c3ccccc3)c2C1 [A3, (E)-N-(2-Chlorophenyl)-2-(6,6-dimethyl-1-phenyl-1,5,6,7-tetrahydro-4H-indazol-4-4ylidene)hydrazine-1-carbothioamide]
percentage cell death (amoebicidal activity) (N. fowleri [1]): 39%
amoebicidal activity, mean (M) (B. mandrillaris [2]): 23.86%
percentage cell death (amoebicidal activity) (B. mandrillaris [2]): 24%
cytotoxicity (HaCaT cells): 19%
amoebistatic activity, mean (M) (B. mandrillaris [3]): 55.62%
inhibition at 50 µM (B. mandrillaris [3]): 56%
amoebistatic activity, mean (M) (N. fowleri [4]): 75.12%
inhibition at 50 µM (N. fowleri [4]): 75%

CC1(C)C/C(=N\NC(N)=S)c2cnn(-c3ccccc3)c2C1 [A4, (E)-2-(6,6-Dimethyl-1-phenyl-1,5,6,7-tetrahydro-4H-indazol-4-4ylidene)hydrazine-1-carbothioamide]
amoebicidal activity, mean (M) (N. fowleri [1]): 72.34%
percentage cell death (amoebicidal activity) (N. fowleri [1]): 72%
amoebicidal activity, mean (M) (B. mandrillaris [2]): 1.65%
percentage cell death (amoebicidal activity) (B. mandrillaris [2]): limited amoebicidal activity
cytotoxicity (HaCaT cells): 5%
amoebistatic activity, mean (M) (B. mandrillaris [3]): 64.98%
inhibition at 50 µM (B. mandrillaris [3]): 65%
amoebistatic activity, mean (M) (N. fowleri [4]): 54.70%
inhibition at 50 µM (N. fowleri [4]): 55%

Clc1cccc(Cc2nnn[nH]2)c1 [A5, 5-(3-Chlorobenzyl)-1H-tetrazole]
amoebicidal activity, mean (M) (N. fowleri [1]): 66.19%
percentage cell death (amoebicidal activity) (N. fowleri [1]): 66%
amoebicidal activity, mean (M) (B. mandrillaris [2]): 64.54%
percentage cell death (amoebicidal activity) (B. mandrillaris [2]): 65%
cytotoxicity (HaCaT cells): 11%
amoebistatic activity, mean (M) (B. mandrillaris [3]): 51.24%
inhibition at 50 µM (B. mandrillaris [3]): 51%
amoebistatic activity, mean (M) (N. fowleri [4]): 62.74%
inhibition at 50 µM (N. fowleri [4]): 63%

c1ccc(-c2nnn[nH]2)cc1 [A6, 5-Phenyl-1H-tetrazole]
percentage cell death (amoebicidal activity) (N. fowleri [1]): 45%
amoebicidal activity, mean (M) (B. mandrillaris [2]): 30.58%
percentage cell death (amoebicidal activity) (B. mandrillaris [2]): 31%
cytotoxicity (HaCaT cells): no cytotoxic activities
amoebistatic activity, mean (M) (B. mandrillaris [3]): 70.35%
inhibition at 50 µM (B. mandrillaris [3]): 70%
amoebistatic activity, mean (M) (N. fowleri [4]): 66.53%
inhibition at 50 µM (N. fowleri [4]): 67%
